Measurements published in patent publication US8598365B2, “Herbicides” (Syngenta Limited, priority 2007, dated 2013).

Legend:
Format in all cases: in vivo
[1] = tested on: Alopecurus myosuroides (ALOMY); experiment: Example B pre-emergence herbicidal activity; details: 312 h, rate 250 g/ha, evaluated after 13 days, read-out: Pre-Emergence Activity ALOMY (100=total damage to plant; 0=no damage to plant)
Summary of the method: (§1)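 Pre-emergence spraying at one day, post-emergence at eight days after sowing. Spray solution in acetone/water (50:50) plus 0.5% Tween 20; plants held at 24/16 °C day/night, 14 h light, 65% humidity. Evaluation at 13 days on a 0–100 damage scale.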

[2] = tested on: Amaranthus retoflexus (AMARE); experiment: Example B pre-emergence herbicidal activity; details: Amaranthus retroflexus, 312 h, rate 250 g/ha, evaluated after 13 days, read-out: Pre-Emergence Activity AMARE (100=total damage to plant; 0=no damage to plant)
Summary of the method: as §1

Avena fatua (AVEFA) [3] = experiment: Example B pre-emergence herbicidal activity; details: 312 h, rate 250 g/ha, evaluated after 13 days, read-out: Pre-Emergence Activity AVEFA (100=total damage to plant; 0=no damage to plant)
Summary of the method: as §1

[4] = tested on: Echinochloa crus-galli (ECHCG); experiment: Example B pre-emergence herbicidal activity; details: 312 h, rate 250 g/ha, evaluated after 13 days, read-out: Pre-Emergence Activity ECHCG (100=total damage to plant; 0=no damage to plant)
Summary of the method: as §1

Setaria faberi (SETFA) [5] = experiment: Example B pre-emergence herbicidal activity; details: 312 h, rate 250 g/ha, evaluated after 13 days, read-out: Pre-Emergence Activity SETFA (100=total damage to plant; 0=no damage to plant)
Summary of the method: as §1

[6] = tested on: Alopecurus myosuroides (ALOMY); experiment: Example B post-emergence herbicidal activity; details: 312 h, rate 250 g/ha, evaluated after 13 days, read-out: Post-emergence activity ALOMY (100=total damage to plant; 0=no damage to plant)
Summary of the method: as §1

[7] = tested on: Amaranthus retoflexus (AMARE); experiment: Example B post-emergence herbicidal activity; details: Amaranthus retroflexus, 312 h, rate 250 g/ha, evaluated after 13 days, read-out: Post-emergence activity AMARE (100=total damage to plant; 0=no damage to plant)
Summary of the method: as §1

Avena fatua (AVEFA) [8] = experiment: Example B post-emergence herbicidal activity; details: 312 h, rate 250 g/ha, evaluated after 13 days, read-out: Post-emergence activity AVEFA (100=total damage to plant; 0=no damage to plant)
Summary of the method: as §1

[9] = tested on: Echinochloa crus-galli (ECHCG); experiment: Example B post-emergence herbicidal activity; details: 312 h, rate 250 g/ha, evaluated after 13 days, read-out: Post-emergence activity ECHCG (100=total damage to plant; 0=no damage to plant)
Summary of the method: as §1

Setaria faberi (SETFA) [10] = experiment: Example B post-emergence herbicidal activity; details: 312 h, rate 250 g/ha, evaluated after 13 days, read-out: Post-emergence activity SETFA (100=total damage to plant; 0=no damage to plant)
Summary of the method: as §1

SMILES | pest or weed control at 250 g/ha [1] | pest or weed control at 250 g/ha [2] | pest or weed control at 250 g/ha (Avena fatua (AVEFA) [3]) | pest or weed control at 250 g/ha [4] | pest or weed control at 250 g/ha (Setaria faberi (SETFA) [5]) | pest or weed control at 250 g/ha [6] | pest or weed control at 250 g/ha [7] | pest or weed control at 250 g/ha (Avena fatua (AVEFA) [8]) | pest or weed control at 250 g/ha [9] | pest or weed control at 250 g/ha (Setaria faberi (SETFA) [10])
CCc1sc(-c2ccc(OC(F)F)cc2)nc1C1C(=O)[C@@H]2CC[C@@H](C2)C1=O (some centres unmarked) [Compound T44] | 90% | 0% | 60% | 100% | 100% | 100% | 0% | 100% | 100% | 100%
CCc1sc(-c2c(C)cc(Cl)cc2F)nc1C1C(=O)[C@@H]2CC[C@@H](C2)C1=O (some centres unmarked) [Compound T45] | 90% | 0% | 30% | 100% | 100% | 100% | 0% | 100% | 100% | 100%
CCc1sc(-c2ccc(Cl)cc2Cl)nc1C1C(=O)[C@@H]2CC[C@@H](C2)C1=O (some centres unmarked) [Compound T46] | 60% | 0% | 30% | 100% | 90% | 100% | 0% | 90% | 100% | 100%
O=C1C(c2nc(-c3ccc(Cl)cc3)sc2Br)C(=O)[C@H]2CC[C@@H]1C2 (some centres unmarked) [Compound T49] | 100% | 0% | 100% | 100% | 100% | 90% | 0% | 90% | 100% | 100%
CCc1sc(-c2ccc(Cl)cc2Br)nc1C1C(=O)[C@@H]2CC[C@@H](C2)C1=O (some centres unmarked) [Compound T51] | 80% | 0% | 20% | 100% | 100% | 100% | 0% | 100% | 100% | 100%
CCc1sc(-c2cc(F)c(Cl)cc2Cl)nc1C1C(=O)[C@@H]2CC[C@@H](C2)C1=O (some centres unmarked) [Compound T53] | 90% | 0% | 80% | 100% | 100% | 100% | 0% | 100% | 100% | 100%
CCc1sc(-c2ccc(C)cc2)nc1C1C(=O)[C@@H]2CC[C@@H](C2)C1=O (some centres unmarked) [Compound T54] | 90% | 0% | 70% | 100% | 60% | 100% | 30% | 90% | 100% | 100%
O=C1C(c2nc(-c3ccc(Cl)cc3)sc2Cl)C(=O)[C@H]2CC[C@@H]1C2 (some centres unmarked) [Compound T55] | 100% | 0% | 100% | 100% | 100% | 100% | 0% | 100% | 100% | 100%
